The text below walks through data of article PMC11786751, “An SH3-binding allosteric modulator stabilizes the global conformation of the AML-associated Src-family kinase, Hck” (The Journal of Biological Chemistry, 2024).

Assay [1] deals with T1, Lyn (Homo sapiens, UniProt P07948).
T1 construct: near-full-length (SH3-SH2-kinase-tail)
The assay can be described thus: SPR. It counts as binding.

Assay [2] concerns the target T2, Src (Homo sapiens, UniProt P12931).
T2 construct: near-full-length (SH3-SH2-kinase-tail)
The assay can be described thus: SPR. It counts as binding.

For assay [3], the target named is T3, Hck (Homo sapiens, UniProt P08631).
T3 construct: SH3 domain (p59 Hck amino acids 80–144); also SH3-SH2-linker (84–261) and near-full-length Hck (84–524)
T3 sequence (P08631 75-139): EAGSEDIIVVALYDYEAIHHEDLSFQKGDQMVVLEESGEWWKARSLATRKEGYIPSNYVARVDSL
Put plainly: 1H-15N HSQC NMR titration; also SPR (KD […], near-full-length), HDX-MS and kinase activation. The format is binding.

The target of assay [4] is T4, Hck (Homo sapiens, UniProt P08631, H284A/T285A/Q523E/Q524E/Q525I).
T4 construct: near-full-length Hck (p59 amino acids 84–524, modified tail YEEIP)
T4 sequence (P08631 79-526 H284A/T285A/Q523E/Q524E/Q525I): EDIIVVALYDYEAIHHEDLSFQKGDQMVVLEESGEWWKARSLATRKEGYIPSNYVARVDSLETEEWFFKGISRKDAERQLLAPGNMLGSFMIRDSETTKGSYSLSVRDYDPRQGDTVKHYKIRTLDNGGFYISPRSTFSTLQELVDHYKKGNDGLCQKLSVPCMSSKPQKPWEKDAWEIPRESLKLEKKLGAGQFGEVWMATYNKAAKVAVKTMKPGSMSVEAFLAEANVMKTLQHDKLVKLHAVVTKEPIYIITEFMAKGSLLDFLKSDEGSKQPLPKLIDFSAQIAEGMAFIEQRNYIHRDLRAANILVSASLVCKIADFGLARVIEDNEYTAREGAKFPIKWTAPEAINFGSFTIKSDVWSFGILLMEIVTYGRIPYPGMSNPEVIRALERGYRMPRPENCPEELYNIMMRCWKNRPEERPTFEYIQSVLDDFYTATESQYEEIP
Put plainly: kinetic kinase assay (ADP Quest), activation of the mutant kinase. It counts as biochemical.

Assay [5] deals with T3, Hck. Put plainly: 1H-15N HSQC NMR titration; also SPR (KD […], near-full-length) and HDX-MS. The format is binding.

SMILES strings stand for the structures.

T1 sequence (P07948 2-512): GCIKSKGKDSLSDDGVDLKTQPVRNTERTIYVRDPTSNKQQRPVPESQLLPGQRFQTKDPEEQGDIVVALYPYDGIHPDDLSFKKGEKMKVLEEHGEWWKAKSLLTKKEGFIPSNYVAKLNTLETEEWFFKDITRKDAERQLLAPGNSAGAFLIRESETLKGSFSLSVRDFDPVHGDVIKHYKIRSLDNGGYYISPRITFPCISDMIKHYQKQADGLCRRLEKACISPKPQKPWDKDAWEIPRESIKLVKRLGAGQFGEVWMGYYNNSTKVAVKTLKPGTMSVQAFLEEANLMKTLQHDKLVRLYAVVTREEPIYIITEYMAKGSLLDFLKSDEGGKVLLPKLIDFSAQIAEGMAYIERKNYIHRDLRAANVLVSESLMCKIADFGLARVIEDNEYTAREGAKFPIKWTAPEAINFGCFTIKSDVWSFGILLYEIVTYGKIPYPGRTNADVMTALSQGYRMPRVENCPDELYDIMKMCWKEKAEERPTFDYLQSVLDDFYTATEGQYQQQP
T2 sequence (P12931 2-536): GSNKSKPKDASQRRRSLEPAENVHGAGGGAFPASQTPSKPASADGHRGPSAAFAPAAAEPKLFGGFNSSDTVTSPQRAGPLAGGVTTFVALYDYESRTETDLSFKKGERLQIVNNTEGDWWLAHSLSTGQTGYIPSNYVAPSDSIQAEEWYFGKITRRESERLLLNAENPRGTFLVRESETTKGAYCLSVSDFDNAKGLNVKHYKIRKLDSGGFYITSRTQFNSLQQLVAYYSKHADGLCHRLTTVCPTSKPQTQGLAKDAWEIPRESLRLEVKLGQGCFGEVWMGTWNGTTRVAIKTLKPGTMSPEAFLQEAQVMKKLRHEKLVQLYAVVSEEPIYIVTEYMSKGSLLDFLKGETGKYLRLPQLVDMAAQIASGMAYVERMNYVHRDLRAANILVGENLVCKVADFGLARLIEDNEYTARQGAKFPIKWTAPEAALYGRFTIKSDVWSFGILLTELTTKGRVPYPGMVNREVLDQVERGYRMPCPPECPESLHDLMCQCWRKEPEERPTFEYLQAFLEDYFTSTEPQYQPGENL

With `Cc1cnc(NCc2ccccc2-n2ccnc2)nc1N(C)C` [PDA2], the Kd in assay [1] was 180 ± 33.7 µM; in assay [2], 236 ± 18.1 µM; in assay [3], 65.1 ± 3.1 µM.
Regarding `CC(C)Nc1ccnc(NCc2cccnc2Oc2ccc(F)cc2)n1` [PDA1], the results for the Kd in assay [1], in assay [2] and in assay [5] were 74.9 ± 19.9 µM, 55 ± 2.18 µM and 42.6 ± 4.7 µM, respectively. Moreover, the “kinetic kinase assay (ADP Quest), activation of the mutant kinase” value in assay [4] was “Both PDA1 and PDA2 activated Hck-HTA (Fig. 7B), unlike WT Hck, which is only activated by PDA2”.
